From patent US4650785A, “Pharmaceutical composition having an excellent absorption property” (Ajinomoto Company Incoporated, priority 1982, dated 1987)
Where a SMILES comes first, the peptide text is derived from it. [ ]: non-standard residue; d: D form. The star is where a group is joined. Cbz = O=C(OCc1ccccc1)*

How the values were obtained:
[1] = tested on: Female ICR-CD-1 mice; experiment: Oral administration of absorption promoter mixed with insulin to mice: decrease in blood glucose and elevation of blood insulin versus control; assay type: in vivo; design: Degree of Elevation of Blood Insulin: unit not given here
Procedure: The absorption promoter samples listed in Table 2 were dissolved or suspended in 0.5% CMC-0.05M tris-HCl buffers (pH: 7.8) and the solutions or suspensions were mixed with aqueous insulin solution. Female ICR-CD-1 mice 5 to 7 weeks old were orally administered predetermined amounts of the mixtures. A predetermined duration later, the percent decrease in blood glucose and the degree of elevation of blood insulin as compared with the control group were measured. The symbol "Z" in the structural formulas in the table represents a benzyloxycarbonyl group. The upper figures in the columns "effectiveness" represent the percent decrease in blood glucose and the lower parenthesized figures indicate the degree of elevation in blood insulin.

[2] = tested on: Female CD-1(ICR) Mice; experiment: Toxicity studies of phenylalanine derivatives (LD50); assay type: in vivo
From the text: Toxicity Studies of Phenylalanine Derivatives with Oral IN Potentiating Activity in Female CD-1(ICR) Mice are as follows:
Phenylalanine derivatives were suspended in 0.5% CMC.

[3] = oral, mice, sample 6.0 mg/10 g with insulin 2.5 U/10 g body weight, 30 minutes, vs control group
[4] = oral, mice, sample 6.0 mg/10 g with insulin 2.5 U/10 g body weight, 60 minutes, vs control group
[5] = oral, mice, sample 3.0 mg/10 g with insulin 2.5 U/10 g body weight, 30 minutes, vs control group
[6] = oral, mice, sample 3.0 mg/10 g with insulin 2.5 U/10 g body weight, 60 minutes, vs control group
[7] = female CD-1(ICR) mice, suspended in 0.5% CMC
[8] = oral, mice, sample 1.5 mg/10 g with insulin 2.5 U/10 g body weight, 30 minutes, vs control group
[9] = oral, mice, sample 1.5 mg/10 g with insulin 2.5 U/10 g body weight, 60 minutes, vs control group
[10] = oral, mice, sample 3.1 mg/10 g with insulin 2.5 U/10 g body weight, 30 minutes, vs control group
[11] = oral, mice, sample 3.1 mg/10 g with insulin 2.5 U/10 g body weight, 60 minutes, vs control group
[12] = oral, mice, sample 12.5 mg/10 g with insulin 2.5 U/10 g body weight, 30 minutes, vs control group
[13] = oral, mice, sample 12.5 mg/10 g with insulin 2.5 U/10 g body weight, 60 minutes, vs control group

SMILES	Decrease in Blood Glucose (%) [1, 3] [%]	Degree of Elevation of Blood Insulin [1, 3]	Decrease in Blood Glucose (%) [1, 4] [%]	Degree of Elevation of Blood Insulin [1, 4]	Decrease in Blood Glucose (%) [1, 5] [%]	Decrease in Blood Glucose (%) [1, 6] [%]	also measured
O=C(Cc1cccc2ccccc12)N[C@@H](Cc1ccccc1)C(=O)O [Sample S-1, N-[(1-naphthyl)acetyl]-L-phenylalanine]	84.9	56.4	75.4	60.0			
O=C(N[C@@H](Cc1ccccc1)C(=O)N[C@H](Cc1ccccc1)C(=O)O)OCc1ccccc1 [Sample S-21, N-benzyloxycarbonyl-L-phenylalanyl-D-phenylalanine] (Cbz-Phe-[dF]-OH)	42.6	14.9	32.7	5.26			
O=C(COc1ccccc1)N[C@H](Cc1ccccc1)C(=O)O [Sample S-9, N-phenoxyacetyl-D-phenylalanine]					37.3	29.7	Degree of Elevation of Blood Insulin [1, 5]: 11.8; Degree of Elevation of Blood Insulin [1, 6]: 2.67
O=C(N[C@@H](Cc1ccccc1)C(=O)N[C@@H](Cc1ccc(O)cc1)C(=O)O)OCc1ccccc1 [Sample S-10, N-benzyloxycarbonyl-L-phenylalanyl-L-tyrosine] (Cbz-Phe-Tyr-OH)	61.5	41.9	43.4	4.85			LD50 (mg/kg) [2, 7]: > 3,000 mg/kg
O=C(N[C@H](Cc1ccccc1)C(=O)O)OCc1ccccc1 [Sample S-18, N-benzyloxycarbonyl-D-phenylalanine]	52.3	6.79	67.2	10.6			LD50 (mg/kg) [2, 7]: > 4,000 mg/kg
Cc1ccc(S(=O)(=O)N[C@@H](Cc2ccccc2)C(=O)O)cc1 [Sample S-33, N-(4-toluenesulfonyl)-L-phenylalanine]	51.6	18.1	21.4	6.48			
O=C(COc1cccc2ccccc12)N[C@@H](Cc1ccccc1)C(=O)O [Sample S-11, N-[(1-naphthoxy)acetyl]-L-phenylalanine]	54.0	11.8	59.7	5.07			LD50 (mg/kg) ([2]; mouse, in vivo): > 4,000 mg/kg
COc1ccc(COC(=O)N[C@@H](Cc2ccccc2)C(=O)O)cc1 [Sample S-17, N-(4-methoxybenzyloxycarbonyl)-L-phenylalanine]					64.8	50.6	Degree of Elevation of Blood Insulin [1, 5]: 14.4; Degree of Elevation of Blood Insulin [1, 6]: 21.2; LD50 [2, 7]: 750 mg/kg
O=C(C=Cc1cccc(C(F)(F)F)c1)N[C@H](Cc1ccccc1)C(=O)O [Sample S-36, N-(3-trifluoromethylcinnamoyl)-D-phenylalanine]					52.0	49.1	
O=C(C=Cc1cccc(C(F)(F)F)c1)N[C@@H](Cc1ccccc1)C(=O)O [Sample S-30, N-(3-trifluoromethylcinnamoyl)-L-phenylalanine]					48.8	44.4	
O=C(N[C@H](Cc1ccccc1)C(=O)N[C@@H](Cc1ccccc1)C(=O)O)OCc1ccccc1 [Sample S-20, N-benzyloxycarbonyl-D-phenylalanyl-L-phenylalanine] (Cbz-[dF]-Phe-OH)							Decrease in Blood Glucose (%) [1, 8]: 22.4%; Degree of Elevation of Blood Insulin [1, 8]: 2.33; Decrease in Blood Glucose (%) [1, 9]: 32.7%; Degree of Elevation of Blood Insulin [1, 9]: 2.46
O=C(C=Cc1ccc(Cl)cc1)N[C@H](Cc1ccccc1)C(=O)O [Sample S-25, N-(4-chlorocinnamoyl)-D-phenylalanine]							Decrease in Blood Glucose (%) [1, 8]: 34.9%; Decrease in Blood Glucose (%) [1, 9]: 29.5%
O=C(COc1ccc([N+](=O)[O-])cc1)NC(Cc1ccc([N+](=O)[O-])cc1)C(=O)O (racemic) [Sample S-2, N-[(4-nitrophenoxy)acetyl]-4-nitro-DL-phenylalanine]	23.2	> 119	60.0	89.7			
O=C(C=Cc1ccc(Cl)cc1)N[C@@H](Cc1ccccc1)C(=O)O [Sample S-24, N-(4-chlorocinnamoyl)-L-phenylalanine]							Decrease in Blood Glucose (%) [1, 8]: 37.1%; Degree of Elevation of Blood Insulin [1, 8]: 5.46; Decrease in Blood Glucose (%) [1, 9]: 27.4%; Degree of Elevation of Blood Insulin [1, 9]: 3.04
O=C(COc1ccccc1)N[C@@H](Cc1ccc([N+](=O)[O-])cc1)C(=O)O [Sample S-6, N-phenoxyacetyl-4-nitro-L-phenylalanine]							Decrease in Blood Glucose (%) [1, 10]: 21.5%; Degree of Elevation of Blood Insulin [1, 10]: 20.6; Decrease in Blood Glucose (%) [1, 11]: 44.7%; Degree of Elevation of Blood Insulin [1, 11]: 21.8
O=C(N[C@@H](Cc1ccccc1)C(=O)N[C@@H](Cc1ccccc1)C(=O)O)OCc1ccccc1 [Sample S-7, N-benzyloxycarbonyl-L-phenylalanyl-L-phenylalanine] (Cbz-Phe-Phe-OH)					70.0	40.6	Degree of Elevation of Blood Insulin [1, 5]: 7.72; Degree of Elevation of Blood Insulin [1, 6]: 9.35; LD50 (mg/kg) [2, 7]: > 3,000 mg/kg
O=C(N[C@@H](Cc1ccccc1)C(=O)NC(Cc1ccc(F)cc1)C(=O)O)OCc1ccccc1 (mixture of isomers) [Sample S-23, N-benzyloxycarbonyl-L-phenylalanyl-4-fluoro-DL-phenylalanine]					67.5	39.4	
O=C(N[C@@H](Cc1ccccc1)C(=O)O)c1ccccc1 [Sample S-14, N-benzoyl-L-phenylalanine]	35.2	6.31	37.8	3.31			
O=C(N[C@@H](Cc1ccccc1)C(=O)O)C(F)=Cc1ccccc1 [Sample S-31, N-(α-fluorocinnamoyl)-L-phenylalanine]					33.5	72.5	
COc1cccc(C=CC(=O)N[C@@H](Cc2ccccc2)C(=O)N[C@@H](Cc2ccccc2)C(=O)O)c1 [Sample S-32, N-(3-methoxycinnamoyl)-L-phenylalanyl-L-phenylalanine]						23.8	Degree of Elevation of Blood Insulin [1, 6]: 4.55
Cc1ccc(S(=O)(=O)NC(Cc2ccccc2)C(=O)O)cc1 (racemic) [Sample S-34, N-(4-toluenesulfonyl)-DL-phenylalanine]	27.3	13.8	93.1	6.52			
O=C(N[C@@H](Cc1ccccc1)C(=O)O)OCc1ccccc1 [Sample S-15, N-benzyloxycarbonyl-L-phenylalanine]					37.5	60.7	Degree of Elevation of Blood Insulin [1, 5]: 3.43; Degree of Elevation of Blood Insulin [1, 6]: 2.36; LD50 (mg/kg) [2, 7]: > 2,750 mg/kg
O=C(COc1ccccc1)N[C@@H](Cc1ccccc1)C(=O)O [Sample S-5, N-phenoxyacetyl-L-phenylalanine]							Decrease in Blood Glucose (%) [1, 12]: 57.9%; Degree of Elevation of Blood Insulin [1, 12]: 88.5; Decrease in Blood Glucose (%) [1, 13]: 33.5%; Degree of Elevation of Blood Insulin [1, 13]: 18.0; LD50 (mg/kg) ([2]; mouse, in vivo): > 4,000 mg/kg
O=C(NC(Cc1ccc(F)cc1)C(=O)N[C@@H](Cc1ccccc1)C(=O)O)OCc1ccccc1 (mixture of isomers) [Sample S-22, N-benzyloxycarbonyl-4-fluoro-DL-phenylalanyl-L-phenylalanine]					63.7	51.9	
Cc1ccc(C=CC(=O)N[C@@H](Cc2ccccc2)C(=O)O)cc1 [Sample S-27, N-(4-methylcinnamoyl)-L-phenylalanine]							Decrease in Blood Glucose (%) [1, 8]: 61.5%; Degree of Elevation of Blood Insulin [1, 8]: 7.76; Decrease in Blood Glucose (%) [1, 9]: 34.4%; Degree of Elevation of Blood Insulin [1, 9]: 1.0
O=C(CCCc1ccccc1)N[C@@H](Cc1ccccc1)C(=O)O [Sample S-8, N-(4-phenylbutyrol)-L-phenylalanine]	57.1	7.31	35.6	9.64			
O=C(N[C@@H](Cc1ccc(OC(=O)OCc2ccccc2)cc1)C(=O)O)OCc1ccccc1 [Sample S-4, N,O-bis-(benzyloxycarbonyl)-L-tyrosine]					52.7	31.1	Degree of Elevation of Blood Insulin [1, 5]: 6.54; Degree of Elevation of Blood Insulin [1, 6]: 2.04
O=C(N[C@@H](Cc1ccc(O)cc1)C(=O)O)OCc1ccccc1 [Sample S-16, N-benzyloxycarbonyl-L-tyrosine]	31.0	50.0		2.99			Decrease in Blood Glucose (%) ([1]; po, 6 mg, 1 h): 27.2%
